Experimental data as given in article PMC12844237, “A Novel Quinolone JH62 (E-2-(Tridec-4-en-1-yl)-quinolin-4(1H)-one) from Pseudomonas aeruginosa Exhibits Potent Anticancer Activity” (Microorganisms, 2025).

Tests used:
[1] = tested on: DU145: human prostate cancer cell lines; test: WST-1 cell viability, DU145; format: cell-based; details: DU-145, DU145 (prostate) cancer cell line
Text: (§1) Different cells were utilized as follows: MEF: murine embryonic fibroblast (RRID: CVCL_L690); AML12: mouse liver cell lines (RRID: CVCL_0140); WI-38: human lung fibroblast cell lines (RRID: CVCL_0579); THLE-2: human liver epithelial cell lines (RRID: CVCL_3803); A549: human lung cancer cell lines (RRID: CVCL_0023); HEPG2: human liver cancer cell lines (RRID: CVCL_0027); HEP3B: human hepatoma cell lines (RRID: CVCL_0326); BxPC3: human pancreatic cancer cell lines (RRID: CVCL_0186); U87: human primary glioblastoma cell lines (RRID: CVCL_0022); DU145: human prostate cancer cell lines (RRID: CVCL_0105); MCF7: human breast cancer cell lines (RRID: CVCL_0031); HeLa: human cervical cancer cell lines (RRID: CVCL_0030); HCT116: human colon cancer cell lines (RRID: CVCL_0291). Cells were maintained in Dulbecco’s modified Eagle’s medium (DMEM, Gibco) supplemented with L-glutamine (Lonza) (2 mM), 10% fetal bovine serum (FBS, Hyclone), 1 × non-essential amino acids, and sodium pyruvate (1 mM). THLE-2 cells were maintained in THLE-2 Cell Complete Medium (Zhong Qiao Xin Zhou, Shanghai, China). Cells were incubated at 37 °C in a humidified incubator with 5% CO2. […]
(§2) Cell viability was assessed using the WST-1 assay, based on a previously reported method with slight modifications. […] Absorbance at OD450 was measured using a microplate reader (Synergy H1; BioTek Instruments, Winooski, VT, USA).

[2] = tested on: THLE-2: human liver epithelial cell lines; test: WST-1 cell viability, THLE-2; format: cell-based; details: THLE-2, non-cancer cell line
Text: as §1, §2

A549 cells [3] = test: DNA fragmentation analysis (genomic DNA electrophoresis); format: cell-based, human; details: A549, 24 h; JH62 5–100 µM, DOX 1 and 5 μM
Method: Genomic DNA fragmentation was analyzed by agarose gel electrophoresis using previously described methods. A549 cells were seeded in 6 cm tissue culture dishes and cultured overnight. Before treatment with JH62 or DOX, the cells were cultured in DMEM lacking FBS for 16 h. After treatment, the cells were then washed three times with PBS and genomic DNA was extracted using a MasterPure™ DNA Purification Kit (Lucigen Corporation, Middleton, WI, USA). The DNA pellet was airdried and resuspended in Tris-HCl (pH 8.0, 10 mM). DNA samples (2.5 μg) were separated by 1% agarose gel electrophoresis in TAE buffer containing ethidium bromide.

[4] = tested on: AML12: mouse liver cell lines; test: WST-1 cell viability, AML12; format: cell-based; details: AML12, non-cancer cell line
Text: as §1, §2

[5] = tested on: BxPC3: human pancreatic cancer cell lines; test: WST-1 cell viability, BxPC3; format: cell-based; details: BXPC-3, BxPC3 (pancreatic) cancer cell line
Text: as §1, §2

A549 cells [6] = test: Mitochondria JC-1 staining (mitochondrial membrane potential); format: cell-based, human; details: A549, 25 μM, red fluorescence decreasing within 2–3 h, lowest by 4 h
Method: Mitochondrial membrane potential and mitochondria localization were assessed by JC-1 and MitoTracker staining based on previously published methods. A549 cells were cultured at 37 °C and 5% CO2 in Dulbecco’s modified Eagle’s medium (DMEM), supplemented with 10% heat-inactivated FBS (Thermo Fisher Scientific, Waltham, MA, USA) and L-Glutamine (Thermo Fisher Scientific, Waltham, MA, USA) (2 mM). An aliquot of 1 mL of JH62 (25 μM) solution was added to the cell cultures. […] Cells were washed with dilution buffer, and photos were taken using a microscope. For MitoTracker staining, cells grown on 12 mm diameter round glass coverslips in 24-well plates were incubated with MitoTracker Red diluted 1:2000 or 1:20,000 from a stock solution (1 mM) in culture medium for 45 min at 37 °C. Cells were then washed with PBS and fixed with ice-cold 3.2% paraformaldehyde in PBS for 20 min at room temperature. After washing, coverslips were mounted on glass slides using an appropriate mounting medium. […]
In cancer cells, mitochondria serve as central organelles for energy production and survival, critically influencing cell viability, immune evasion, tumor progression, and therapy resistance. […] We used the potential-sensitive fluorescent probe JC-1, which emits green fluorescence as a monomer at low concentrations and forms red-fluorescent aggregates in mitochondria with intact ΔΨm.

CCCCCCCC/C=C/CCCc1cc(=O)c2ccccc2[nH]1 [JH62, E-2-(tridec-4-en-1-yl)-quinolin-4(1H)-one]
IC50 [1]: 13.8 ± 3.3 µM
IC50 [2]: 27.3 ± 4.9 µM
genomic DNA integrity (electrophoresis) (A549 cells [3]): genomic DNA integrity remained unchanged
IC50 [4]: 37.1 ± 0.7 µM
IC50 [5]: 15 ± 0.4 µM
mitochondrial membrane potential (JC-1 red fluorescence) (A549 cells [6]): disrupted the mitochondrial membrane potential
